Assay [1] addresses Hepatocyte growth factor receptor (Homo sapiens, UniProt P08581).
Description: Inhibition of recombinant MET using biotinylated-poly(GT) peptide as substrate after 60 mins
Assay [2] addresses ALK tyrosine kinase receptor (Homo sapiens, UniProt Q9UM73).
Description: Inhibition of 6xHis-tagged NPM-ALK using biotinylated-poly(GT) peptide as substrate after 60 mins
In assay [3] the target is Insulin receptor (Homo sapiens, UniProt P06213).
Chain of Insulin receptor (P06213 28-758 limits assumed): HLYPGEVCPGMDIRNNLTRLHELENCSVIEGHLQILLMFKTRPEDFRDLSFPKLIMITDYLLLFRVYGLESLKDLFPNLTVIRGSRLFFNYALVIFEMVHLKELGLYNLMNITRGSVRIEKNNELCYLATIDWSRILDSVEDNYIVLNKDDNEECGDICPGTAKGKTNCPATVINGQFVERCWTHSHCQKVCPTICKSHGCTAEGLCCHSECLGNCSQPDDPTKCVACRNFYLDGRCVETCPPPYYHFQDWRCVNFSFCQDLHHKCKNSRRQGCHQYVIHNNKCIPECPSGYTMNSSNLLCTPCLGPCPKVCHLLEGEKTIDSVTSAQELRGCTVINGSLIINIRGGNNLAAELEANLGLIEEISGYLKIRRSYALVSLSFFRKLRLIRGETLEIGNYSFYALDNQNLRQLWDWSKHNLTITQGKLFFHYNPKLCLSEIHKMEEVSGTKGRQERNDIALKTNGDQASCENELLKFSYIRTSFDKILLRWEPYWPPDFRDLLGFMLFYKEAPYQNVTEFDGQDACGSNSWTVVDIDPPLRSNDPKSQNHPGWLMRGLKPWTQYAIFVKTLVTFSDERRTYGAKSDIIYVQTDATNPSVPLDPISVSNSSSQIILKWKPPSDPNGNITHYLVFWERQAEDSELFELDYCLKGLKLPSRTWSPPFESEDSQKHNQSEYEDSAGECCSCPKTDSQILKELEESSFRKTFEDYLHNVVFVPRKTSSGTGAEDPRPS
Chain of Insulin receptor (P06213 763-1382 limits assumed): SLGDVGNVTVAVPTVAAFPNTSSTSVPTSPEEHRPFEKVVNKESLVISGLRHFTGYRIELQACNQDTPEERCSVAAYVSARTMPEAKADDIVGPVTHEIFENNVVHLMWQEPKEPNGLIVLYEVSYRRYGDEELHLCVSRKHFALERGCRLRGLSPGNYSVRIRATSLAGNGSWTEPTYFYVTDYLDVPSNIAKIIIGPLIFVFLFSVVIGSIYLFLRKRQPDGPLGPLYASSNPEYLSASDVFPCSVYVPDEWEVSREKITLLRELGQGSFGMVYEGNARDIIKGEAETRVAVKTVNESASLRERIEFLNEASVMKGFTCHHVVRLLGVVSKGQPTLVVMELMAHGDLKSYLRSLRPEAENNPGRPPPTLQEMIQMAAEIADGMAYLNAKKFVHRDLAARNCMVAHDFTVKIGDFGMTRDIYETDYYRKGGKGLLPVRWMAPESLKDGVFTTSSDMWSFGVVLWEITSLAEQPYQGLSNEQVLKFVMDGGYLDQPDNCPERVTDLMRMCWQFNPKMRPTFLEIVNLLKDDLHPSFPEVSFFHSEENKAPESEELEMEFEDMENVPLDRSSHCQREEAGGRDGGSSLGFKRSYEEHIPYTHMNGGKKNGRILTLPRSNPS
Description: Inhibition of recombinant IRK using biotinylated-poly(GT) peptide as substrate after 60 mins

Chain of ALK tyrosine kinase receptor (Q9UM73 whole entry): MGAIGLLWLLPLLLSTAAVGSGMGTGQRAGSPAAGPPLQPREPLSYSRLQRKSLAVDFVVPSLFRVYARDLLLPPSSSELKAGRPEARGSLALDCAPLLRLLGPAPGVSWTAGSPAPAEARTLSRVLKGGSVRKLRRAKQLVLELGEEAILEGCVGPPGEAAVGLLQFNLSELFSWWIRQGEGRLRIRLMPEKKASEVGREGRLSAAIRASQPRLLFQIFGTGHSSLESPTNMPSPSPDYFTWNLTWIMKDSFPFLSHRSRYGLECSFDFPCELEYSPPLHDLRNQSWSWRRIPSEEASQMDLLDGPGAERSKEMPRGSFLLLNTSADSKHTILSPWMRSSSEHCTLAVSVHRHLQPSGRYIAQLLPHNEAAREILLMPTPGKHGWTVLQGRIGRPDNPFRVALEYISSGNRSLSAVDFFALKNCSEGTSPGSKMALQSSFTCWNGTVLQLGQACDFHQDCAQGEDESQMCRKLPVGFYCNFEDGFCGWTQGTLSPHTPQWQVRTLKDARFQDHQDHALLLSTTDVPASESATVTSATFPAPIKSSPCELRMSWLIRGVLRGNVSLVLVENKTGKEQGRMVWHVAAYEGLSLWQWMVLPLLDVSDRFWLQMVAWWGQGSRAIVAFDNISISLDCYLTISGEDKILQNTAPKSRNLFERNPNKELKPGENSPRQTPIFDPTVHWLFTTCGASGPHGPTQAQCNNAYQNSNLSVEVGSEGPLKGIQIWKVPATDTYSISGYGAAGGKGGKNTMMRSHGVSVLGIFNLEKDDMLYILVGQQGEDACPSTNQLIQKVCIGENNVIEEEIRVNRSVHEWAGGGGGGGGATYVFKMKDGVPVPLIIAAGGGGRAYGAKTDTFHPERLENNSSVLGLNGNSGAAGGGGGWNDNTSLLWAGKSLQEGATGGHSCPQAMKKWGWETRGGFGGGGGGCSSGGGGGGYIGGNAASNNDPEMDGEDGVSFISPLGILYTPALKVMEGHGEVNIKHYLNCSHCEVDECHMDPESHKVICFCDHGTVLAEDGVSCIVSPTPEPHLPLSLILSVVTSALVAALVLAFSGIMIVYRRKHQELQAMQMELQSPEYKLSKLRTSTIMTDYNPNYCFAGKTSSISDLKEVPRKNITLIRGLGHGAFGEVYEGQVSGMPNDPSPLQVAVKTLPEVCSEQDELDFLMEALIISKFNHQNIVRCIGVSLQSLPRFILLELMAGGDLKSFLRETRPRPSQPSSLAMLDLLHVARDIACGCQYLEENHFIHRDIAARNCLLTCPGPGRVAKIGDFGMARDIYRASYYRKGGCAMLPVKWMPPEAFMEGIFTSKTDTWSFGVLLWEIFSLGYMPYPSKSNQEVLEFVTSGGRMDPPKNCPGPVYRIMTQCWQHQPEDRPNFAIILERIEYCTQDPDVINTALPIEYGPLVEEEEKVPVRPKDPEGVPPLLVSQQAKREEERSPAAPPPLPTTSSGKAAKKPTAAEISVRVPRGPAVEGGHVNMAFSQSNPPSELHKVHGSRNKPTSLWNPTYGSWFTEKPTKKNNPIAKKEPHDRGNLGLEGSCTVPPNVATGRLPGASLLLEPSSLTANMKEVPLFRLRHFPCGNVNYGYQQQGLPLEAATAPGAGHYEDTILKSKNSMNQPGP
Chain of Hepatocyte growth factor receptor (P08581 whole entry): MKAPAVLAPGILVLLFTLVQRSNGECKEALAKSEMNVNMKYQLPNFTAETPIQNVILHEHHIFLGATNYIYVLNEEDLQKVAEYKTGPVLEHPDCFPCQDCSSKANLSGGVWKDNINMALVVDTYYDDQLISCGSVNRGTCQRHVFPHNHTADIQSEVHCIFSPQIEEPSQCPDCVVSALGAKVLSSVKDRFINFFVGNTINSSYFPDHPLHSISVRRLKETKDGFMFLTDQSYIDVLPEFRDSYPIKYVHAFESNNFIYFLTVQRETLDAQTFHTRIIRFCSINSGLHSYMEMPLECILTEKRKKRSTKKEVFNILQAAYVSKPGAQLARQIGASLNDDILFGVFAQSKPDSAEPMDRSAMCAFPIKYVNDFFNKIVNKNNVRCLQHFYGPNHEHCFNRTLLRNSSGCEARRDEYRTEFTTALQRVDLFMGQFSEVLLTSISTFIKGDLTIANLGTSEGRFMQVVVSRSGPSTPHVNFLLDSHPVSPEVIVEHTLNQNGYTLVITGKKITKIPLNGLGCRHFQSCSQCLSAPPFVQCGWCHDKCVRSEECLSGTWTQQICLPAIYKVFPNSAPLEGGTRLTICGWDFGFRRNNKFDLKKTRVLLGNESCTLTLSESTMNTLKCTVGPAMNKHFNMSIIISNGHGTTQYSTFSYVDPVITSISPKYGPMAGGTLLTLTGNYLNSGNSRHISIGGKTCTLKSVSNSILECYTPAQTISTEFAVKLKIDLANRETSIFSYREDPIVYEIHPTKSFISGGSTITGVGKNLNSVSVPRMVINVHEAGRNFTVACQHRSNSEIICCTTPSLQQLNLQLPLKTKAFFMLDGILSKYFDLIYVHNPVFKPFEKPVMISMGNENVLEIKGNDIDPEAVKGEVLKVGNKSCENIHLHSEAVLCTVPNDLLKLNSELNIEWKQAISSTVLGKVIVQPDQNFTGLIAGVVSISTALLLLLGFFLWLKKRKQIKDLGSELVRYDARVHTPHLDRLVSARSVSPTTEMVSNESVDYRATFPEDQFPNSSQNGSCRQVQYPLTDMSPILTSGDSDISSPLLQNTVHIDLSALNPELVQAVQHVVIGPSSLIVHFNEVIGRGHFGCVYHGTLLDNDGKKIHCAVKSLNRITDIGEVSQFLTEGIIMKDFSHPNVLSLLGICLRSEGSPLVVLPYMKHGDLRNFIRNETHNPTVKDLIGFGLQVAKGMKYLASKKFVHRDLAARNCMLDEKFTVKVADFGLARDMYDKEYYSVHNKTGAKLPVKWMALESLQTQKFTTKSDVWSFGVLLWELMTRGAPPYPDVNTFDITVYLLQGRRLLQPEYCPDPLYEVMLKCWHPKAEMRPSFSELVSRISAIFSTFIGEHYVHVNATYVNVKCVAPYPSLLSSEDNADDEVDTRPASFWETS

Consider `CCOC(=O)/C=C/c1c(Oc2c(Cl)cccc2Cl)nc[nH]c1=O`, for which the IC50 in assay [1], in assay [2] and in assay [3] was over 40 µM in each case.
`COc1cccc(OC)c1Oc1nc[nH]c(=O)c1/C=C/C(C)=O`: the IC50 in assay [1], in assay [2] and in assay [3] was over 40 µM in each case.
For the compound `COC(=O)c1cccc(Oc2nc[nH]c(=O)c2-c2ccccc2)c1`, the concentration for half-maximal inhibition (IC50) in assay [1], in assay [2] and in assay [3] was over 40 µM each time.
Consider `CC(=O)/C=C/c1c(Oc2c(C)cc(C(C)=O)cc2C)nc[nH]c1=O`, for which the IC50 in assay [1], in assay [2] and in assay [3] was over 40 µM in each case.
As for `CC(=O)/C=C/c1c(Oc2ccccc2Cl)nc[nH]c1=O`, the concentration for half-maximal inhibition (IC50) in assay [1], in assay [2] and in assay [3] was over 40 µM in each case.
As for `COC(=O)c1cc(OC)ccc1Oc1nc[nH]c(=O)c1/C=C/C(C)=O`, the 50% inhibitory concentration (IC50) in assay [1], in assay [2] and in assay [3] was over 40 µM throughout.
Consider `COC(=O)c1cccc(Oc2nc[nH]c(=O)c2C2CC(C)=NN2)c1` (stereo not drawn), for which the IC50 in assay [1], in assay [2] and in assay [3] was over 40 µM in each case.
Turning to `CCOC(=O)/C=C/c1c(Oc2ccc(Cl)cc2OC)nc[nH]c1=O`, the IC50 in assay [1], in assay [2] and in assay [3] was over 40 µM in each case.
On to `COc1cc(Cl)ccc1Oc1nc[nH]c(=O)c1/C=C/C(C)=O`, for which the IC50 in assay [1], in assay [2] and in assay [3] was over 40 µM in each case.
Turning to `CCOC(=O)/C=C/c1c(Oc2ccc(C(C)(C)C)cc2)nc[nH]c1=O`, the IC50 in assay [1], in assay [2] and in assay [3] was over 40 µM in each case.
`CCOC(=O)/C=C/c1c(Oc2cccc(C(=O)OC)c2)nc[nH]c1=O`: the IC50 in assay [1], in assay [2] and in assay [3] was over 40 µM each time.
For `CC(=O)/C=C/c1c(Oc2ccc(C#N)cc2)nc[nH]c1=O`, the values for the IC50 in assay [1], in assay [2] and in assay [3] were over 40 µM, 6.91 µM and over 40 µM, respectively.
For `CCCCCCOC(=O)c1ccccc1Oc1nc[nH]c(=O)c1/C=C/C(C)=O`, the IC50 in assay [1], in assay [2] and in assay [3] was over 40 µM throughout.
As for `COC(=O)c1cc(Cl)ccc1Oc1nc[nH]c(=O)c1/C=C/C(C)=O`, the IC50 in assay [1], in assay [2] and in assay [3] was over 40 µM each time.
For `CC(=O)/C=C/c1c(Oc2ccc(O)cc2)nc[nH]c1=O`, the IC50 in assay [1] is over 40 µM; in assay [2], 7.57 µM; in assay [3] it was over 40 µM.
`CC(=O)/C=C/c1c(Oc2ccc(C)cc2)nc[nH]c1=O`: the IC50 in assay [1], in assay [2] and in assay [3] was over 40 µM each time.
Turning to `CC(=O)/C=C/c1c(Oc2ccc(C(C)=O)c(F)c2)nc[nH]c1=O`, the IC50 in assay [1], in assay [2] and in assay [3] was over 40 µM each time.
On to `CC(=O)/C=C/c1c(Oc2ccc(C(C)(C)C)cc2)nc[nH]c1=O`, for which the IC50 in assay [1], in assay [2] and in assay [3] was over 40 µM each time.
Turning to `COc1cccc(Oc2nc[nH]c(=O)c2/C=C/C(C)=O)c1`, the IC50 in assay [1], in assay [2] and in assay [3] was over 40 µM each time.
As for `COC(=O)c1cccc(Oc2nc[nH]c(=O)c2C2CC(C)=NN2C)c1` (stereo not drawn), the half-inhibitory concentration (IC50) in assay [1], in assay [2] and in assay [3] was over 40 µM in each case.
In the case of `COC(=O)c1cccc(Oc2nc[nH]c(=O)c2-c2cccc(N)c2)c1`, the IC50 in assay [1], in assay [2] and in assay [3] was over 40 µM each time.
As for `CC(=O)/C=C/c1c(Oc2c(Cl)cccc2Cl)nc[nH]c1=O`, the IC50 in assay [1], in assay [2] and in assay [3] was over 40 µM each time.
Consider `COC(=O)c1ccc(OC)cc1Oc1nc[nH]c(=O)c1/C=C/C(C)=O`, for which the IC50 is over 40 µM in assay [1], 10.2 µM in assay [2] and over 40 µM in assay [3].
With `CC(=O)/C=C/c1c(Oc2ccc(F)cc2)nc[nH]c1=O`, the IC50 in assay [1], in assay [2] and in assay [3] was over 40 µM each time.
Take `COC(=O)c1cccc(Oc2nc[nH]c(=O)c2C2CC(C)=NN2C(C)=O)c1` (stereo not drawn): the IC50 is over 40 µM in assay [1], 9 µM in assay [2] and over 40 µM in assay [3].
Turning to `COC(=O)c1cccc(Oc2nc[nH]c(=O)c2CCC(C)=O)c1`, the IC50 in assay [1], in assay [2] and in assay [3] was over 40 µM throughout.
`CC(=O)/C=C/c1c(Oc2ccc(C)cc2C(C)=O)nc[nH]c1=O`: the IC50 in assay [1], in assay [2] and in assay [3] was over 40 µM each time.
Consider `COC(=O)c1cccc(Oc2nc[nH]c(=O)c2-c2ccncc2)c1`, for which the IC50 in assay [1], in assay [2] and in assay [3] was over 40 µM each time.
With `CC(=O)/C=C/c1c(Oc2ccccc2C(C)=O)nc[nH]c1=O`, the 50% inhibitory concentration (IC50) in assay [1], in assay [2] and in assay [3] was over 40 µM throughout.
On to `CCOC(=O)/C=C/c1c(Oc2c(OC)cccc2OC)nc[nH]c1=O`, for which the IC50 in assay [1], in assay [2] and in assay [3] was over 40 µM in each case.
For the compound `CCOC(=O)c1ccccc1Oc1nc[nH]c(=O)c1/C=C/C(C)=O`, the IC50 was over 40 µM in assay [1], 7.54 µM in assay [2] and over 40 µM in assay [3].
On to `CC(=O)/C=C/c1c(Oc2cccc(C#N)c2)nc[nH]c1=O`, for which the IC50 in assay [1], in assay [2] and in assay [3] was over 40 µM in each case.
Consider `CC(=O)/C=C/c1c(Oc2cccc(C(C)=O)c2)nc[nH]c1=O`, for which the IC50 in assay [1] is over 40 µM; in assay [2], 6.25 µM; in assay [3], over 40 µM.
Turning to `CCOC(=O)/C=C/c1c(Oc2cccc(C#N)c2)nc[nH]c1=O`, the IC50 in assay [1], in assay [2] and in assay [3] was over 40 µM each time.
In the case of `CCOC(=O)/C=C/c1c(Oc2cccc(OC)c2)nc[nH]c1=O`, the IC50 in assay [1], in assay [2] and in assay [3] was over 40 µM in each case.
Regarding `CCOC(=O)/C=C/c1c(Oc2ccc(C)cc2)nc[nH]c1=O`, the concentration for half-maximal inhibition (IC50) in assay [1], in assay [2] and in assay [3] was over 40 µM each time.
In the case of `CCOC(=O)c1ccc(Oc2nc[nH]c(=O)c2/C=C/C(C)=O)cc1`, the 50% inhibitory concentration (IC50) in assay [1], in assay [2] and in assay [3] was over 40 µM in each case.
Take `CCOC(=O)/C=C/c1c(Oc2ccccc2Cl)nc[nH]c1=O`: the half-inhibitory concentration (IC50) in assay [1], in assay [2] and in assay [3] was over 40 µM throughout.
As to `CC(=O)/C=C/c1c(Oc2cc(C(F)(F)F)ccc2Cl)nc[nH]c1=O`, the IC50 in assay [1] was over 40 µM; in assay [2], 9.87 µM; in assay [3], over 40 µM.
Regarding `CC(=O)/C=C/c1c(Oc2ccc(NC(C)=O)cc2)nc[nH]c1=O`, the IC50 in assay [1] is over 40 µM; in assay [2], 6.64 µM; in assay [3] it was over 40 µM.
In the case of `CCOC(=O)/C=C/c1c(Oc2ccc(OC)cc2C(=O)OC)nc[nH]c1=O`, the IC50 in assay [1], in assay [2] and in assay [3] was over 40 µM each time.
As to `COC(=O)c1cccc(Oc2nc[nH]c(=O)c2/C=C/C(C)=O)c1`, the values for the IC50 in assay [1], in assay [2] and in assay [3] were 4.01 µM, 3.03 µM and over 40 µM, respectively.
For `CCOC(=O)/C=C/c1c(Oc2ccc(F)cc2)nc[nH]c1=O`, the IC50 in assay [1], in assay [2] and in assay [3] was over 40 µM each time.
Regarding `COc1cc(Oc2nc[nH]c(=O)c2/C=C/C(C)=O)c(C(C)=O)cc1OC`, the IC50 is over 40 µM in assay [1], 7.54 µM in assay [2] and over 40 µM in assay [3].
Turning to `COC(=O)c1cccc(Oc2nc[nH]c(=O)c2-c2cccc(C)c2)c1`, the IC50 in assay [1], in assay [2] and in assay [3] was over 40 µM each time.
Turning to `COC(=O)c1cccc(Oc2nc[nH]c(=O)c2-c2cccc(OC)c2)c1`, the IC50 in assay [1], in assay [2] and in assay [3] was over 40 µM throughout.

The values above are taken from ChEMBL document CHEMBL1806450, “Synthesis of an aryloxy oxo pyrimidinone library that displays ALK-selective inhibition” (Bioorg Med Chem Lett, 2011).
